Results: patent US20230100367A1, “METHODS OF TREATING CDGSH IRON SULFUR DOMAIN 2 INSUFFICIENCY-ASSOCIATED DISORDERS” (National Yang Ming Chiao Tung University, priority 2021, published 2023)
pEC50: −log10 of the molar value.

test system: Cisd2 promoter with firefly luciferase reporter (HEK293-CISD2); experiment: Cisd2-luciferase reporter assay; type: cell-based; settings: Homo sapiens; HEK293-CISD2 cells, 24 h incubation, luciferase activity
Procedure: Compounds 1-35 were tested for increasing the level of Cisd2 in human embryonic kidney cells 293 (HEK293), a transfected cell line expressing Cisd2, using the Cisd2-luciferase reporter assay as described below.
The transfected HEK293 cells stably expressed Cisd2 promoter with firefly luciferase reporter (“HEK293-CISD2”). They were kept in Dulbecco's modified Eagle's medium (“DMEM”) (Gibco, New York, N.Y.). Culture medium was supplemented with 10% heat-inactivated fetal bovine serum (“FBS”), 2 mM L-Glutamine, 1 mM sodium pyruvate, 0.1% MEM Non-Essential Amino Acids, 1 μg/ml puromycin and 1% penicillin/streptomycin (HyClone, Logan, Utah). The cells were maintained at 37° C. in an incubator (Thermo Fisher Scientific, Waltham, Mass.) with an atmosphere of 5% CO2. The stably transfected cells were seeded in 384-well plates at a density of 3×10^3 cells/well. After incubation with a tested compound at 37° C. for 24 h, ONE-Glo™ Luciferase Assay System (Promega, Madison, Wis.) was added at room temperature for 10 minutes to detect any luciferase activity. Luminescence intensity was registered using plate reader BioTek Synergy Neo2™ (Agilent, Santa Clara, Calif.).
EC50 values in this table are presented in […] classes, i.e., A: <1 μM and B: 1 μM-10 μM.

Compound	pEC50
COC(=O)c1c(N)sc(C(=O)Nc2ccccc2C)c1C [Compound 7, Methyl 2-amino-4-methyl-5-[(2-methylphenyl)carbamoyl]thiophene-3-carboxylate]	> 6.00
COC(=O)c1c(N)sc(C(=O)Nc2ccc(O)cc2)c1C [Compound 21, methyl 2-amino-5-[(4-hydroxyphenyl)carbamoyl]-4-methylthiophene-3-carboxylate]	> 6.00
COC(=O)c1c(NC(C)=O)sc(C(=O)Nc2ccc(C)cc2C)c1C [Compound 33]	5.00 to 6.00
COC(=O)c1c(N)sc(C(=O)Nc2ccc(C#N)cc2)c1C [Compound 15, Methyl 2-amino-5-[(4-cyanophenyl)carbamoyl]-4-methylthiophene-3-carboxylate]	> 6.00
Cc1ccc(NC(=O)c2sc(N)c(C(=O)CO)c2C)c(C)c1 [Compound 29, 5-amino-N-(2,4-dimethylphenyl)-4-(hydroxyacetyl)-3-methylthiophene-2-carboxamide]	> 6.00
COC(=O)c1c(N)sc(C(=O)Nc2ccc(F)cc2)c1C [Compound 13, Methyl 2-amino-5-[(4-fluorophenyl)carbamoyl]-4-methylthiophene-3-carboxylate]	> 6.00
COC(=O)c1c(N)sc(C(=O)Nc2ccc(C)cc2C)c1Br [Compound 23, methyl 2-amino-4-bromo-5-[(2,4-dimethylphenyl)carbamoyl]thiophene-3-carboxylate]	> 6.00
Cc1ccc(NC(=O)c2sc(N)c(C(=O)NCC#N)c2C)c(C)c1 [Compound 28, 5-amino-N^4-(cyanomethyl)-N^2-(2,4-dimethylphenyl)-3-methylthiophene-2,4-dicarboxamide]	5.00 to 6.00
Cc1ccc(NC(=O)c2sc(N)c(C(=O)OC(C)C)c2C)c(C)c1 [Compound 14, Propan-2-yl 2-amino-5-[(2,4-dimethylphenyl)carbamoyl]-4-methylthiophene-3-carboxylate]	5.00 to 6.00
COC(=O)c1cc(C(=O)Nc2ccc(C)cc2C)sc1N [Compound 22, Methyl 2-amino-5-[(2,4-dimethylphenyl)carbamoyl]thiophene-3-carboxylate]	5.00 to 6.00
COC(=O)c1c(N)sc(C(=O)Nc2nccs2)c1C [Compound 19, Methyl 2-amino-4-methyl-5-(1,3-thiazol-2-ylcarbamoyl)thiophene-3-carboxylate]	> 6.00
COC(=O)c1c(N)sc(C(=O)Cc2ccc(C)cc2C)c1C [Compound 24, methyl 2-amino-5-[(2,4-dimethylphenyl)acetyl]-4-methylthiophene-3-carboxylate]	5.00 to 6.00
COC(=O)c1c(N)sc(C(=O)Nc2ccc(OC)cc2)c1C [Compound 6, Methyl 2-amino-5-[(4-methoxyphenyl)carbamoyl]-4-methylthiophene-3-carboxylate]	> 6.00
COC(=O)c1c(N)sc(C(=O)Nc2ccc(C)cc2)c1C [Compound 8, Methyl 2-amino-4-methyl-5-[(4-methylphenyl)carbamoyl]thiophene-3-carboxylate]	> 6.00
CC(=O)c1c(N)sc(C(=O)Nc2ccccc2)c1C [Compound 31, 4-Acetyl-5-amino-3-methyl-N-phenylthiophene-2-carboxamide]	> 6.00
COC(=O)c1c(N)sc(C(=O)Nc2c(C)cc(C)cc2C)c1C [Compound 17, Methyl 2-amino-4-methyl-5-[(2,4,6-trimethylphenyl)carbamoyl]thiophene carboxylate]	5.00 to 6.00
Cc1ccc(NC(=O)c2sc(N)c(C(N)=O)c2C)c(C)c1 [Compound 12, 5-Amino-N^2-(2,4-dimethylphenyl)-3-methylthiophene-2,4-dicarboxamide]	> 6.00

Compound	pEC50
CC(=O)c1c(N)sc(C(=O)Nc2ccc(F)cc2)c1C [Compound 32, 4-Acetyl-5-amino-N-(4-fluorophenyl)-3-methylthiophene-2-carboxamide]	> 6.00
COC(=O)c1c(N)sc(C(=O)OC(C)(C)C)c1C [Compound 4, 2-tert-Butyl 4-methyl 5-amino-3-methylthiophene-2,4-dicarboxylate]	5.00 to 6.00
COC(=O)c1c(N)sc(C(=O)Nc2ccc(C(F)(F)F)cc2)c1C [Compound 10, Methyl 2-amino-4-methyl-5-{-[4-(trifluoromethyl)phenyl]carbamoyl}thiophene-3-carboxylate]	> 6.00
CCOC(=O)c1c(N)sc(C(=O)Nc2ccc(F)cc2)c1C [Compound 5, Ethyl 2-amino-5-[(4-fluorophenyl)carbamoyl]-4-methylthiophene-3-carboxylate]	> 6.00
CCOC(=O)c1c(N)sc(C(=O)Nc2ccc(C)cc2C)c1C [Compound 25, Ethyl 2-amino-5-[(2,4-dimethylphenyl)carbamoyl]-4-methylthiophene-3-carboxylate]	> 6.00
CC(=O)c1c(N)sc(C(=O)Nc2ccc(C)cc2C)c1C [Compound 30, 4-acetyl-5-amino-N-(2,4-dimethylphenyl)-3-methylthiophene-2-carboxamide]	> 6.00
COC(=O)c1c(N)sc(C(=O)Nc2cccc(OC)c2)c1C [Compound 20, Methyl 2-amino-5-[(3-methoxyphenyl)carbamoyl]-4-methylthiophene-3-carboxylate]	> 6.00
COC(=O)c1c(N)sc(C(=O)Nc2ccc(N(C)C)cc2)c1C [Compound 11, Methyl 2-amino-5-{-[4-(dimethylamino)phenyl]carbamoyl}-4-methylthiophene-3-carboxylate]	> 6.00
COC(=O)c1c(N)sc(C(=O)Nc2cccc(C)c2)c1C [Compound 16, Methyl 2-amino-4-methyl-5-[(3-methylphenyl)carbamoyl]thiophene-3-carboxylate]	> 6.00
COC(=O)c1c(N)sc(C(=O)Nc2ccccc2)c1C [Compound 9, Methyl 2-amino-4-methyl-5-(phenylcarbamoyl)thiophene-3-carboxylate]	> 6.00
COC(=O)c1c(N)sc(C(=O)Nc2cccnc2)c1C [Compound 3, Methyl 2-amino-4-methyl-5-(pyridin-3-ylcarbamoyl)thiophene-3-carboxylate]	> 6.00
Cc1ccc(NC(=O)c2sc(N)c(C#N)c2C)c(C)c1 [Compound 2, 5-Amino-4-cyano-N-(2,4-dimethylphenyl)-3-methylthiophene-2-carboxamide]	5.00 to 6.00
Cc1ccc(NC(=O)c2sc(N)c(C(=O)OC(C)(C)C)c2C)c(C)c1 [Compound 34, tert-Butyl 2-amino-5-[(2,4-dimethylphenyl)carbamoyl]-4-methylthiophene carboxylate]	5.00 to 6.00
COC(=O)c1c(N)sc(C(=O)Nc2ccccc2OC)c1C [Compound 35, Methyl 2-amino-5-[(2-methoxyphenyl)carbamoyl]-4-methylthiophene-3-carboxylate]	5.00 to 6.00
CCOC(=O)c1cccc(NC(=O)c2sc(N)c(C(=O)OCC)c2C)c1 [Compound 26, Ethyl 2-amino-5-{[3-(ethoxycarbonyl)phenyl]carbamoyl}-4-methylthiophene-3-carboxylate]	5.00 to 6.00
Cc1ccc(NC(=O)c2sc(N)c(C(=O)O)c2C)c(C)c1 [Compound 27, 2-amino-5-[(2,4-dimethylphenyl)carbamoyl]-4-methylthiophene-3-carboxylic acid]	> 6.00
COC(=O)c1c(N)sc(C(=O)Nc2cc(OC)c(OC)c(OC)c2)c1C [Compound 18, Methyl 2-amino-4-methyl-5-[(3,4,5-trimethoxyphenyl)carbamoyl]thiophene-3-carboxylate]	5.00 to 6.00
